Values quoted from earlier work, collected in publication PMC9441699 (Frontiers in Cellular and Infection Microbiology, 2022).
Like-named read-outs stand apart in the source and are kept apart here.

What was measured:
HcoV-OC43 = conditions: 2019
MERS-CoV = conditions: 2019
[1] = biological target: angiotensin converting enzyme from rabbit lung; set-up: method as in Yu et al., 2012; conditions: 0.01-10 µM; ref Yu et al., 2012
Vero cells = system: Vero cells; set-up: method as in Ho et al., 2007; conditions: 0, 10, 50, 100, 200 and 400 µ/mL; ref Ho et al., 2007
[2] = system: HcoV-NL63 inLLC-MK2 cells; set-up: method as in Weng et al., 2019; conditions: 0, 10, 50,100 µM/36h; ref Weng et al., 2019; read-out: Inhibition of viral cytopathicity IC50
SARS-CoV [3] = conditions: read-out: EC50 SARS-CoV viral replication
[4] = system: interaction of S protein with ACE2; set-up: method as in Ho et al., 2007; dose or concentration left out as unconfirmed; conditions: ref Ho et al., 2007
SARS-CoV [5] = conditions: ref Li et al., 2005
RdRp Dengue virus = system: RdRp Dengue virus; set-up: method as in Coulerie et al., 2013; conditions: in vitro; ref Coulerie et al., 2013
[6] = tanshinones from Salvia miltiorrhiza, read-out: IC50 against PLpro
[7] = 1, 2.5, 20 µM/16h, ref Jo et al., 2020, read-out: IC50

CC[C@H]1CN2CCc3cc(OC)c(OC)cc3[C@@H]2C[C@@H]1C[C@H]1NCCc2cc(OC)c(OC)cc21 [Emetine, reference compound]
EC50 (HcoV-OC43; ref Weber and Opatz): 0.3 µM
EC50 (HcoV-NL63; ref Weber and Opatz, 2019, read-out: EC50 HcoV-NL63): 1.43 µM
EC50 (MERS-CoV; ref Weber and Opatz): 0.34 µM

O=C(/C=C/CCc1ccc(O)c(O)c1)CCc1ccc(O)c(O)c1 [Ligand L01, Hirsutenone]
IC50 (SARS-CoV-PLpro; 0-200 µM/60min, ref Park et al., 2012a, read-out: IC50): 4.1 µM

C=C(C)C(Cc1c(OC)ccc(C(=O)/C=C/c2ccc(O)cc2)c1O)OO (stereo not shown) [Ligand L02, Xanthoangelol E]
IC50 (SARS-CoV-3CLpro; 0, 12.5, 25, 50 µM, ref Park et al., 2016, read-out: Inhibition of SARS-CoV-3CLpro activity IC50): 11.4 µM
IC50 (SARS-CoV-PLpro; 0, 12.5, 25, 50 µM, ref Park et al., 2016, read-out: Inhibition of SARS-CoV-PLpro activity IC50): 1.2 µM

O=c1c(O)c(-c2cc(O)c(O)c(O)c2)oc2cc(O)cc(O)c12 [Ligand L03, Myricetin]
IC50 [1]: 2.71 µM
inhibitory effect against SARS-CoV helicase (SARS-CoV helicase): moderate inhibitory impacts

CC(C)=CCc1cc2c(cc1O)oc(=O)c1c3ccc(O)cc3oc21 [Ligand L04, Psoralidin]
IC50 (SARS-CoV-PLpro; 0-100 µM, ref Kim et al., 2014, read-out: IC50): 4.2 µM

Oc1cc(O)cc(Oc2c(O)cc(O)c3c2Oc2c(O)cc(Oc4c(O)cc(Oc5c(O)cc(O)c6c5Oc5c(O)cc(O)cc5O6)cc4O)cc2O3)c1 [Ligand L05, Dieckol]
IC50 (SARS-CoV-3CLpro; 0-200 µM, ref Park et al., 2013, read-out: IC50): 2.7 µM

COc1cc([C@H]2Oc3cc4c(c(O)c3C(=O)[C@@H]2O)CCC(C)(CCCC(C)(C)O)O4)ccc1O (stereo partly shown) [Ligand L06, Tomentin E]
IC50 (SARS-CoV-PLpro; 0, 6.25, 12.5, 25 µM, ref Cho et al., 2013, read-out: IC50): 5 µM

Cc1cc(O)c2c(c1)C(=O)c1cc(O)cc(O)c1C2=O [Ligand L07, Emodin]
IC50 (Vero cells): 200 µM

C[C@H]1COC2=C1C(=O)C(=O)c1c2ccc2c1CCCC2(C)C [Ligand L08, Cryptotanshinone]
IC50 (SARS-CoV-PLpro; 0-200 µM/30min, ref Park et al., 2012b, read-out: IC50): 0.8 µM

Cc1cccc2c3c(ccc12)C1=C(C(=O)C3=O)[C@@H](C)CO1 [Ligand L09, Dihydrotanshinone l,]
IC50 (SARS-CoV-3CLpro; 0-200 µM/60min, ref Park et al., 2012b, read-out: IC50): 14.4 µM
IC50 (SARS-CoV-PLpro; [6]): 4.9 µM

O=C(O)/C=C/c1ccc(O)c(O)c1 [Ligand L10, Caffeic acid]
IC50 [2]: 3.54 µM

O=C(/C=C/c1ccc(O)c(O)c1)O[C@@H]1C[C@](O)(C(=O)O)C[C@@H](O)[C@H]1O [Ligand L11, Chlorogenic acid]
IC50 [2]: 43.5 µM

O=C(O)c1cc(O)c(O)c(O)c1 [Ligand L12, Gallic acid]
IC50 [2]: 71.5 µM

O=c1cc(-c2ccc(O)cc2)oc2cc(O)c(O)c(O)c12 [Ligand L13, Scutellarein]
inhibitory effect against SARS-CoV helicase (SARS-CoV helicase): moderate inhibitory impacts
IC50 (SARS-CoV helicase; 0.01-10 µM, In vitro, ref Yu et al., 2012): 0.86 µM

O=c1cc(-c2ccc(O)c(-c3c(O)cc(O)c4c(=O)cc(-c5ccc(O)cc5)oc34)c2)oc2cc(O)cc(O)c12 [Ligand L14, Amentoflavone]
IC50 (SARS-CoV-3CLpro; 0-300 µM, ref Ryu et al., 2010a, read-out: IC50): 8.3 µM

COc1cc(/C=C/C(=O)NC(O)C(=O)c2ccc(O)cc2)ccc1O (stereo not shown) [Ligand L15, Terrestrimine]
IC50 (SARS-CoV-PLpro; 1,10,100,1000 µM, ref Song et al., 2014, read-out: IC50): 15.8 µM

O=c1c(O)c(-c2ccc(O)cc2)oc2c(O)c(O)cc(O)c12 [Ligand L16, Herbacetin]
IC50 (SARS-CoV-3CLpro; [7]): 33.2 µM

COc1ccc(-c2cc(=O)c3c(O)c(OC)c(O[C@@H]4O[C@H](CO[C@@H]5O[C@@H](C)[C@H](O)[C@@H](O)[C@H]5O)[C@@H](O)[C@H](O)[C@H]4O)cc3o2)cc1 [Ligand L17, Pectolinarin]
IC50 (SARS-CoV-3CLpro; [7]): 37.8 µM

C[C@@H]1O[C@@H](O[C@H]2[C@H](Oc3cc(O)c4c(=O)cc(-c5ccc(O)cc5)oc4c3)O[C@H](CO)[C@@H](O)[C@@H]2O)[C@H](O)[C@H](O)[C@H]1O [Ligand L18, Rhoifolin]
IC50 (SARS-CoV-3CLpro; [7]): 27.4 µM

COC(=O)[C@H]1[C@H]2C[C@@H]3c4[nH]c5cc(OC)ccc5c4CCN3C[C@H]2C[C@@H](OC(=O)c2cc(OC)c(OC)c(OC)c2)[C@@H]1OC [Reserpine]
EC50 (SARS-CoV [3]): 3.4 µM

CC[C@H](CC[C@@H](C)[C@H]1CC[C@H]2[C@@H]3CC=C4C[C@@H](O)CC[C@]4(C)[C@H]3CC[C@]12C)C(C)C [Sitosternol]
EC50 (HcoV-NL63; ref Lin et al., 2005, read-out: EC50 against human coronavirus (HCoV-NL63)): 1210 µM

O=c1cc(-c2ccccc2)oc2cc(O)cc(O)c12 [chrysin]
effect on the interaction of S protein with ACE2 [4]: weak inhibitory effect

O[C@H]1[C@H]2c3cc4c(cc3CN3CCC(=C[C@@H]1O)[C@H]23)OCO4 [lycorine]
EC50 (SARS-CoV [5]; MTS test, read-out: EC50 against SARS-CoV): 0.0157 ± 0.0012 µM
IC50 (SARS-CoV [5]; Prasansuklab et al., 2020, read-out: IC50 anti-SARS-CoV): 0.0157 µM
EC50 (HcoV-OC43; in vitro, ref Shen et al.): 0.15 µM
EC50 (HcoV-NL63; in vitro, ref Shen et al., 2019, read-out: EC50 HcoV-NL63): 0.47 µM
EC50 (MERS-CoV; in vitro, ref Shen et al.): 1.63 µM

COc1cc(O)c2c(=O)cc(-c3ccc(O)cc3)oc2c1-c1cc(-c2cc(=O)c3c(O)cc(O)cc3o2)ccc1O [sotetsuflavone]
IC50 (RdRp Dengue virus): 0.16 µM

Cc1coc2c1C(=O)C(=O)c1c-2ccc2c1CCCC2(C)C [tanshinone IIA]
IC50 (SARS-CoV-PLpro; [6]): 1.6 µM

COc1ccc(C(=O)/C=C/c2ccc(O)cc2)c(O)c1C/C=C(\C)CCC=C(C)C [xanthoangelol F]
IC50 (SARS-CoV-PLpro; noncompetitive inhibition, ref Park et al., 2016, read-out: IC50 PLpro): 5.6 µM

curcumin
IC50 (SARS-CoV-PLpro; diarylheptanoids, ref Park et al., 2012a, read-out: IC50 PLpro): 5.7 µM
